Source: ChEMBL document CHEMBL5113421, “Development of novel conformationally restricted selective Clk1/4 inhibitors through creating an intramolecular hydrogen bond involving an imide linker” (Eur J Med Chem, 2022)
One block for each compound: values may come before it.

Legend:
[1] = molecular target: T1, Dual specificity protein kinase CLK1 (Homo sapiens, UniProt P49759); test: Inhibition of human recombinant GST-tagged Clk1 (129 to 484 residues) expressed in Escherichia coli expression system at 100 nM using GRSRSRSRSRSRSRS peptide as substrate incubated for 15 mins in presence of ATP by phosphoimager analysis relative to control
Target sequence in this assay (P49759 whole entry, looked up, the tested form may be a part): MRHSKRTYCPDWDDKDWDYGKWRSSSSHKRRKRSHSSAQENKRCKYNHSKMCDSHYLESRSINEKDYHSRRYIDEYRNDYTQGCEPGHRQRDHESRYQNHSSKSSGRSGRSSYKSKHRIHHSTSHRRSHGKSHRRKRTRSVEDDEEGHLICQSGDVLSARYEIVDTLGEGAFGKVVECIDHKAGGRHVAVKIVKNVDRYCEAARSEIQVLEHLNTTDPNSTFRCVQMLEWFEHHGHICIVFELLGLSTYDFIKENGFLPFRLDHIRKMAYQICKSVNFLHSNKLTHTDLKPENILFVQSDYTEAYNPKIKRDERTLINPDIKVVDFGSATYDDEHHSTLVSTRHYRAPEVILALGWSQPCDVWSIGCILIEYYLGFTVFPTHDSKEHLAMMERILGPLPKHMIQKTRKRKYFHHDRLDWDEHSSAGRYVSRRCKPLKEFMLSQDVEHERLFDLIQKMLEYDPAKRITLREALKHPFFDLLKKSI

[2] = molecular target: T1, Dual specificity protein kinase CLK1; test: Inhibition of human recombinant GST-tagged Clk1 (129 to 484 residues) expressed in Escherichia coli expression system using GRSRSRSRSRSRSRS peptide as substrate incubated for 15 mins in presence of ATP by phosphoimager analysis
Target sequence in this assay (P49759 whole entry, the tested form may be a part): as the sequence (P49759 whole entry, looked up, the tested form may be a part) above

[3] = molecular target: T2, Dual specificity protein kinase CLK2 (Homo sapiens, UniProt P49760); test: Inhibition of human recombinant GST-tagged Clk2 expressed in Baculovirus expression system using GRSRSRSRSRSRSRS peptide as substrate incubated for 15 mins in presence of ATP by phosphoimager analysis
Target sequence in this assay (P49760 whole entry): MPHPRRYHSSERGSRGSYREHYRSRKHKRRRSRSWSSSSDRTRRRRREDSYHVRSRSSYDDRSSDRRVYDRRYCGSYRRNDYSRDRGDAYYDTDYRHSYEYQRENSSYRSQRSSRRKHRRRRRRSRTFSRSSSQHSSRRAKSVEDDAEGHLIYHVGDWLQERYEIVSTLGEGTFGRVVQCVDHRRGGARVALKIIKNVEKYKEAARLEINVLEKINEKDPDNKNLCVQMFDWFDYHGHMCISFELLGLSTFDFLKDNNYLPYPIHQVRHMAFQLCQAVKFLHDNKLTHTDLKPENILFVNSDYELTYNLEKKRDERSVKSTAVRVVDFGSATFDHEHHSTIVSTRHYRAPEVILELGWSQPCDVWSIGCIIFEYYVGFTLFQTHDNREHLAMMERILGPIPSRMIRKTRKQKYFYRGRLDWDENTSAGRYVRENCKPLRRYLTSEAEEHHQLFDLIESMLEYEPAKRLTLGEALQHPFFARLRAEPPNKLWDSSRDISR

[4] = molecular target: T2, Dual specificity protein kinase CLK2; test: Inhibition of human recombinant GST-tagged Clk2 expressed in Baculovirus expression system at 0.25 uM using GRSRSRSRSRSRSRS peptide as substrate incubated for 15 mins in presence of ATP by phosphoimager analysis relative to control
Target sequence in this assay (P49760 whole entry, looked up): as the sequence (P49760 whole entry) above

Homo sapiens [5] = species on record: Homo sapiens; test: Selectivity index, ratio of IC50 for human Clk2 to IC50 for human Clk1 by phosphoimager analysis
T-24 = test: Antiproliferative activity against human T24 cells assessed as cell growth inhibition measured after 3 days by MTT assay; type: functional; conditions: T-24, 72 h, time 3 day
[6] = molecular target: Casein kinase I isoform delta (Homo sapiens) (UniProt P48730); test: Inhibition of human recombinant GST tagged full length CSNK1D expressed in Baculovirus expression system at 1 uM relative to control
Homo sapiens [7] = species on record: Homo sapiens; test: Inhibition of CK2 (unknown origin) at 1 uM relative to control
[8] = molecular target: Dual specificity protein kinase CLK3 (Homo sapiens) (UniProt P49761); test: Inhibition of human recombinant GST-tagged full length CLK3 expressed in Baculovirus expression system at 1 uM relative to control
[9] = molecular target: Dual specificity protein kinase CLK4 (Homo sapiens, UniProt Q9HAZ1); test: Inhibition of human recombinant GST tagged full length CLK4 expressed in Baculovirus expression system at 1 uM relative to control
[10] = molecular target: Dual specificity tyrosine-phosphorylation-regulated kinase 1A (Homo sapiens) (UniProt Q13627); test: Inhibition of human recombinant GST tagged full length DYRK1A expressed in Baculovirus expression system at 1 uM relative to control
[11] = molecular target: T3, Serine/threonine-protein kinase haspin (Homo sapiens) (UniProt Q8TF76); test: Inhibition of human recombinant GST tagged full length Haspin catalytic domain expressed in Baculovirus expression system at 1 uM relative to control
T3 sequence (whole entry): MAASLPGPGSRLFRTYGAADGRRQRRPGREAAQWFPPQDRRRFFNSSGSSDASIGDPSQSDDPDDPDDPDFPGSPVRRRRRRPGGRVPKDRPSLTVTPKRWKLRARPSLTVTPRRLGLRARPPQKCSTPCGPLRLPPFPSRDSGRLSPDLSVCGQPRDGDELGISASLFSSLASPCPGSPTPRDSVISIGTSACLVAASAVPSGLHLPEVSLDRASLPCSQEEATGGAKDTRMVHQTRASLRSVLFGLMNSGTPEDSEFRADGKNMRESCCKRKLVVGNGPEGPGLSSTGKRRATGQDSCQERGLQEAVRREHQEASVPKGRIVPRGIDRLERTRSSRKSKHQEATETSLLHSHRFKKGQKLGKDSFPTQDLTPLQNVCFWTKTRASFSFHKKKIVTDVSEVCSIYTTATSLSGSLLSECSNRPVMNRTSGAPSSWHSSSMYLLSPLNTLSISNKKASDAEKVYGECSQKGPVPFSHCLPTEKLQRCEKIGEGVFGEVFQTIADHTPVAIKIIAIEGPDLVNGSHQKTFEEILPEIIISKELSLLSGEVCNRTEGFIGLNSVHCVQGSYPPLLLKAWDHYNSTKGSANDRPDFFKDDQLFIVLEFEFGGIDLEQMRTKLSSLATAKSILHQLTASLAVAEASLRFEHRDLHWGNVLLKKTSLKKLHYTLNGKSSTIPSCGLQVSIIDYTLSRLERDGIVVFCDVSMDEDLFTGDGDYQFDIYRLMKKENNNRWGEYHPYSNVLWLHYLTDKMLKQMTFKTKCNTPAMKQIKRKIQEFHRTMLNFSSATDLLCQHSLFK

[12] = molecular target: Homeodomain-interacting protein kinase 1 (Homo sapiens) (UniProt Q86Z02); test: Inhibition of human recombinant GST tagged HIPK1 expressed in Baculovirus expression system at 1 uM relative to control
[13] = molecular target: Serine/threonine-protein kinase pim-1 (Homo sapiens) (UniProt P11309); test: Inhibition of human recombinant His tagged full length Pim1 expressed in Baculovirus expression system at 1 uM relative to control
[14] = molecular target: SRSF protein kinase 1 (Homo sapiens) (UniProt Q96SB4); test: Inhibition of human recombinant His tagged full length SRPK1 expressed in Baculovirus expression system at 1 uM relative to control
[15] = molecular target: BDNF/NT-3 growth factors receptor (Homo sapiens) (UniProt Q16620); test: Inhibition of human recombinant His tagged full length TRKB expressed in Baculovirus expression system at 1 uM relative to control
BDNF/NT-3 growth factors receptor (Homo sapiens), sequence (Q16620 32-822 limits assumed): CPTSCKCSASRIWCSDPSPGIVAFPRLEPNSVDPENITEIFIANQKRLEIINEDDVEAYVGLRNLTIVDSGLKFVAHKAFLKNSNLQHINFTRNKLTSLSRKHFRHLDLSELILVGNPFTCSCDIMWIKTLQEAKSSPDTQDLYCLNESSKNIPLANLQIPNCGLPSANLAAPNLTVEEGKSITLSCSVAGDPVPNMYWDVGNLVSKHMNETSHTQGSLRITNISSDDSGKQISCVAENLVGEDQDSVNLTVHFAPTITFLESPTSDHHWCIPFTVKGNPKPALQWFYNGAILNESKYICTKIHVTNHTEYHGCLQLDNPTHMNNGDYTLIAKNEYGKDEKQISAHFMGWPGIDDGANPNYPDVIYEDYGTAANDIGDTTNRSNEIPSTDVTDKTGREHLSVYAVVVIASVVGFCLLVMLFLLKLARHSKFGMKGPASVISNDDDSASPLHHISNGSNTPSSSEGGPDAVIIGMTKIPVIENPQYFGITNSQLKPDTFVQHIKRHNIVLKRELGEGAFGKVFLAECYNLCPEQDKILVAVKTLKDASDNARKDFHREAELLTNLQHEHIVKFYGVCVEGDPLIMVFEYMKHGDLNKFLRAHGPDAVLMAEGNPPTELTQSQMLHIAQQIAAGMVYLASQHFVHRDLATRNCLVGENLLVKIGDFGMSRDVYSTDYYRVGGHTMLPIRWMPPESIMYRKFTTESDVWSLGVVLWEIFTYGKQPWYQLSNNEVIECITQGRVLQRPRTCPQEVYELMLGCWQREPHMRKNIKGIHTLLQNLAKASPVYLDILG

Casein kinase I isoform delta (Homo sapiens), sequence (P48730 whole entry, looked up, canonical isoform): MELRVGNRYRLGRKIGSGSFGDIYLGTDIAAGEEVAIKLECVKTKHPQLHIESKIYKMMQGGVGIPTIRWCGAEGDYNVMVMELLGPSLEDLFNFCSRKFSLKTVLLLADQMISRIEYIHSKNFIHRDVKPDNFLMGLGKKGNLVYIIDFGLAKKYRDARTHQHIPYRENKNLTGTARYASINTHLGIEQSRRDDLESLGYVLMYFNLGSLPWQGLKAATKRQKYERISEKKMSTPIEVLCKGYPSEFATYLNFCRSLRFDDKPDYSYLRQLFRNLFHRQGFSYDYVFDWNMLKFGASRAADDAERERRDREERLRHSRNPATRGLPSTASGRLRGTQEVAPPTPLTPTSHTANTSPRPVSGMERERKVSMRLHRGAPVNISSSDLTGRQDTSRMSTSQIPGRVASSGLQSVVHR
Dual specificity protein kinase CLK4, sequence (Q9HAZ1 whole entry, looked up): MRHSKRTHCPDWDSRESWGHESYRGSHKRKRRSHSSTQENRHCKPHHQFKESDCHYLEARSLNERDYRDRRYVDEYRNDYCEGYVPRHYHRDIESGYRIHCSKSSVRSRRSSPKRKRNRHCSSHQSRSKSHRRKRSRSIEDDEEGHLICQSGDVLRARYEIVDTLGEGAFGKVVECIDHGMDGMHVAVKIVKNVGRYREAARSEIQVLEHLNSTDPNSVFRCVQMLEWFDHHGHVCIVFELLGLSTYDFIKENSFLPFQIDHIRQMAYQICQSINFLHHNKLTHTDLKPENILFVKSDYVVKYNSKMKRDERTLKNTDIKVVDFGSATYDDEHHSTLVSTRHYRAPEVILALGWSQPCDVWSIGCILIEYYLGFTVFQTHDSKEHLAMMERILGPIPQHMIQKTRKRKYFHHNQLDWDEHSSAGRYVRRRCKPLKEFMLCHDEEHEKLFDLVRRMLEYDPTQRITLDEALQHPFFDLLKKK
Serine/threonine-protein kinase pim-1 (Homo sapiens), sequence (P11309 whole entry, looked up): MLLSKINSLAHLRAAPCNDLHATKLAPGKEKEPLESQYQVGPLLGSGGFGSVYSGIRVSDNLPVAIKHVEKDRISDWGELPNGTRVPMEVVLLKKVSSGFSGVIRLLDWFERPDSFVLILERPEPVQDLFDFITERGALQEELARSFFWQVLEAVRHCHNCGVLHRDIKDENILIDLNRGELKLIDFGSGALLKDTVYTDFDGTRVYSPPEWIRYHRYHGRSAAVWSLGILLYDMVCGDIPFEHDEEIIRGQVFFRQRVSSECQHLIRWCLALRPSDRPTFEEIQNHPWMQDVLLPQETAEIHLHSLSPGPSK
Homeodomain-interacting protein kinase 1 (Homo sapiens), sequence (Q86Z02 whole entry, looked up): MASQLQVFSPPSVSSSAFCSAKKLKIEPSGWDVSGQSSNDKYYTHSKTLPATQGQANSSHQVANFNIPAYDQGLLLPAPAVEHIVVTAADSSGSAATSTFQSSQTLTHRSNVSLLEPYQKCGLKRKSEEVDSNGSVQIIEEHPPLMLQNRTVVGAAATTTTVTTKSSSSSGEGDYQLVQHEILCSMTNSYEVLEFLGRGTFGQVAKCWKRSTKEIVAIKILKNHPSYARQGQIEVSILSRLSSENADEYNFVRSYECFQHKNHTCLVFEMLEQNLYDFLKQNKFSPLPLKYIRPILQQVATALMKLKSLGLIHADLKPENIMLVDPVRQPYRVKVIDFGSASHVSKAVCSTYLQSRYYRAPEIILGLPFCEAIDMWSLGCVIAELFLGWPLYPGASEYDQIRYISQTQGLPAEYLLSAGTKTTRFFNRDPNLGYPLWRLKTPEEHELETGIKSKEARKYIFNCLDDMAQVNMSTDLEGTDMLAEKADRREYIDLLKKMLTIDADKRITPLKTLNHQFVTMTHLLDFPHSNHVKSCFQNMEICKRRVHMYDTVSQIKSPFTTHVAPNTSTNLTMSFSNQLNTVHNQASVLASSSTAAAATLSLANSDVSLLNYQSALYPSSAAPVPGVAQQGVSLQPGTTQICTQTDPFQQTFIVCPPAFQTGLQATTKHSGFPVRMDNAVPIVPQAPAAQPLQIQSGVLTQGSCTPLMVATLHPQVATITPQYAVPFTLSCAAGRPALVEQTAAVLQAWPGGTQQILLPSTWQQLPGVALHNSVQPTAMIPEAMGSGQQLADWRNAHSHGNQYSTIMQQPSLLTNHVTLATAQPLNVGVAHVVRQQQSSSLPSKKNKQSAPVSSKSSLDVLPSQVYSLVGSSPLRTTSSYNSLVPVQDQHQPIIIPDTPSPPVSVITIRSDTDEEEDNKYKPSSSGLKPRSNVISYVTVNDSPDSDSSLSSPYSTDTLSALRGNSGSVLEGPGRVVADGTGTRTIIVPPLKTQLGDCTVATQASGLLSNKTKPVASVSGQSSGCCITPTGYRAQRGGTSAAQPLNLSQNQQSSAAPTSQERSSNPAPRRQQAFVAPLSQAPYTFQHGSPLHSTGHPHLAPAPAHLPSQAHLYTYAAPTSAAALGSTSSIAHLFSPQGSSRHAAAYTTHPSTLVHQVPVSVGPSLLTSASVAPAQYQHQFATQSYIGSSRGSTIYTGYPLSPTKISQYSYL
SRSF protein kinase 1 (Homo sapiens), sequence (Q96SB4 whole entry): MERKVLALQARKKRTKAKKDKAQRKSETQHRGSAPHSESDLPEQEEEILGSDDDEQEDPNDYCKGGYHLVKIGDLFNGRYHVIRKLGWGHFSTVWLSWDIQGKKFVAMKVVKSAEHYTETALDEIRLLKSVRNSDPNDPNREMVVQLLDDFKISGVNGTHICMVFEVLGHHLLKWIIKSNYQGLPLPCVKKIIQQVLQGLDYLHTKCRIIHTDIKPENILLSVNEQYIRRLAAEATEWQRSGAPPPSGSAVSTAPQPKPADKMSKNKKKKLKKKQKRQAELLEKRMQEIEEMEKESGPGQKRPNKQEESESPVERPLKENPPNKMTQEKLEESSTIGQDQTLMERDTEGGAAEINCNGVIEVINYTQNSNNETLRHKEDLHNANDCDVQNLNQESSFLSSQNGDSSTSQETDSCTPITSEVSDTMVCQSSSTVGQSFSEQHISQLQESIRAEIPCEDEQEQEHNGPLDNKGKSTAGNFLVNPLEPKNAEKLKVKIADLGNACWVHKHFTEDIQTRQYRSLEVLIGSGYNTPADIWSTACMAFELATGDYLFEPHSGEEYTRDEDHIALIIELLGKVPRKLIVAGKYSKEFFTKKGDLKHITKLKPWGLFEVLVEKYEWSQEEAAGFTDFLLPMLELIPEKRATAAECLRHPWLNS

inhibition [1]: 5.9%
Compound: COc1ccc2sc(C(=O)NC(=O)c3ccc(OC)c(F)c3)cc2c1

inhibition [1]: 2.2%
Compound: COc1ccc2sc(C(=O)NC(=O)c3cccc(Cl)c3OC)cc2c1

inhibition [1]: 83.3%
IC50 [2]: 18.4 nM
IC50 [3]: 250 nM
inhibition [4]: 52.6%
Ratio IC50 (Homo sapiens [5]): 13.6
Compound: COc1ccc2sc(C(=O)NC(=O)c3cc(F)ccc3OC)cc2c1

inhibition [1]: 15.7%
Compound: COc1ccc2sc(C(=O)N(C)C(=O)c3ccccc3OC)cc2c1

inhibition [1]: 12.2%
Compound: COc1ccc2sc(C(=O)NC(=O)c3c(OC)cccc3OC)cc2c1

inhibition [1]: 6.5%
Compound: COc1ccc2sc(C(=O)NC(=O)c3ccccc3C)cc2c1

inhibition [1]: 10.6%
Compound: COc1cc(F)c(C(=O)NC(=O)c2cc3cc(OC)ccc3s2)c(F)c1

inhibition [1]: 62.3%
IC50 [2]: 89.8 nM
Compound: CCCOc1ccccc1C(=O)NC(=O)c1cc2cc(OC)ccc2s1

inhibition [1]: 54.6%
Compound: COc1ccc2sc(C(=O)NC(=O)c3cc(F)cc(F)c3)cc2c1

inhibition [1]: 9.6%
Compound: COc1ccc2sc(C(=O)NC(=O)c3cc(C(F)(F)F)ccc3OC)cc2c1

inhibition [1]: 16.5%
Compound: COc1ccc2sc(C(=O)NC(=O)c3ccccc3F)cc2c1

inhibition [1]: 12.4%
Compound: COc1ccc2sc(C(=O)NC(=O)c3ccc(OC)c(OC)c3)cc2c1

inhibition [1]: 64.4%
IC50 [2]: 49 nM
Compound: COc1ccc2sc(C(=O)NC(=O)c3ccccc3OC(F)(F)F)cc2c1
GI50 (T-24): 1100 nM

inhibition [1]: 30.8%
Compound: COc1ccc(OC)c(C(=O)NC(=O)c2cc3cc(OC)ccc3s2)c1

inhibition [1]: 12.1%
Compound: COc1ccc2sc(C(=O)NC(=O)c3ccno3)cc2c1

inhibition [1]: 42.2%
Compound: COc1ccc(C(=O)NC(=O)c2cc3cc(OC)ccc3s2)c(OC)c1
GI50 (T-24): > 15000 nM

inhibition [1]: 56.1%
Compound: COc1ccc2sc(C(=O)NC(=O)c3ccccc3)cc2c1

inhibition [1]: 33%
Compound: COc1ccc2sc(C(=O)NC(=O)c3cccc(Cl)n3)cc2c1

inhibition [1]: 9.2%
Compound: COc1ccc2sc(C(=O)NC(=O)c3cccc4c3OCCO4)cc2c1

inhibition [1]: 42.7%
Compound: COc1ccc2sc(C(=O)NC(=O)c3cc(C)ccc3OC)cc2c1

inhibition [1]: 74.5%
IC50 [2]: 4 nM
IC50 [3]: > 250 nM
inhibition [4]: 47.1%
Ratio IC50 (Homo sapiens [5]): > 62.5
inhibition [6]: 11%
inhibition (Homo sapiens [7]): 5%
inhibition [8]: 59%
inhibition [9]: 96%
inhibition [10]: 48%
inhibition [11]: 29%
inhibition [12]: 7%
inhibition [13]: 52%
inhibition [14]: 4%
inhibition [15]: 10%
Compound: COc1ccc2sc(C(=O)NC(=O)c3ccc(F)cc3OC)cc2c1
GI50 (T-24): > 15000 nM
